The values that follow are results of earlier work, collected in patent publication US8940275B2, “Nanoparticles based on gadolinium coordination polymers as highly sensitive T1 MRI contrast agents” (Kent State University, priority 2010, dated 2015).

Structures are written as SMILES.

For the first data set the following is noted: clinical MRI contrast agents; 1.5 T.
On to `O=C([O-])CN1CCN(CC(=O)[O-])CCN([C@H](CO)[C@H](O)CO)CCN(CC(=O)[O-])CC1.[Gd+3]` (racemic) [Gadovist ®], for which the R1 (typical relaxivity value) is 5.3 mM⁻¹ s⁻¹.
Take `CNC[C@H](O)[C@@H](O)[C@H](O)[C@H](O)CO.O=C([O-])CN1CCN(CC(=O)[O-])CCN(CC(=O)O)CCN(CC(=O)[O-])CC1.[Gd+3]` [Dotarem ®]: the R1 (typical relaxivity value) was 4.2 mM⁻¹ s⁻¹.
As for `CNC[C@H](O)[C@@H](O)[C@H](O)[C@H](O)CO.CNC[C@H](O)[C@@H](O)[C@H](O)[C@H](O)CO.O=C([O-])CN(CCN(CC(=O)[O-])CC(=O)O)CCN(CC(=O)[O-])CC(=O)O.[Gd+3]` [Magnevist ®], the R1 (typical relaxivity value) is 4.3 mM⁻¹ s⁻¹.
`CNC[C@H](O)[C@@H](O)[C@H](O)[C@H](O)CO.CNC[C@H](O)[C@@H](O)[C@H](O)[C@H](O)CO.O=C([O-])CN(CCN(CC(=O)[O-])CC(=O)O)CCN(CC(=O)O)C(COCc1ccccc1)C(=O)[O-].[Gd+3]` (stereo not drawn) [MultiHance]: the R1 (typical relaxivity value) is 6.7 mM⁻¹ s⁻¹.
On to `CNC(=O)CN(CCN(CCN(CC(=O)[O-])CC(=O)NC)CC(=O)[O-])CC(=O)[O-].[Gd+3]` [Omniscan ®], for which the R1 (typical relaxivity value) is 4.6 mM⁻¹ s⁻¹.
In the case of `COCCNC(=O)CN(CCN(CCN(CC(=O)[O-])CC(=O)NCCOC)CC(=O)[O-])CC(=O)[O-].[Gd+3]` [OptiMARK], the R1 (typical relaxivity value) is 5.2 mM⁻¹ s⁻¹.
Take `CCOc1ccc(CC(CN(CCN(CC(=O)[O-])CC(=O)[O-])CC(=O)[O-])N(CC(=O)[O-])CC(=O)[O-])cc1.[Gd+3].[Na+].[Na+]` (stereo not drawn) [Primovist]: the R1 (typical relaxivity value) was 7.3 mM⁻¹ s⁻¹.
Turning to `CC(O)CN1CCN(CC(=O)[O-])CCN(CC(=O)[O-])CCN(CC(=O)[O-])CC1.[Gd+3]` (stereo not drawn) [ProHance ®], the R1 (typical relaxivity value) was 4.4 mM⁻¹ s⁻¹.

The conditions of a further data set: commercial agents, field not given.
Take `CNC[C@H](O)[C@@H](O)[C@H](O)[C@H](O)CO.CNC[C@H](O)[C@@H](O)[C@H](O)[C@H](O)CO.O=C([O-])CN(CCN(CC(=O)[O-])CC(=O)O)CCN(CC(=O)[O-])CC(=O)O.[Gd+3]` [Magnevist ®]: the r1 was 4.3 mM⁻¹ s⁻¹.
